Results reported in paper PMC10492782, “Exploiting the aggregation propensity of beta-lactamases to design inhibitors that induce enzyme misfolding” (Nature Communications, 2023).

Experiments:
Format in all cases: cell-based, Escherichia coli
E. coli TEM-30 = details: for Interoretation: E. coli TEM-30; for Interpretation: VITEK 2 AST card
Experimental: (§1) Beta-lactamase clinical samples were collected from University Hospitals Leuven and tested for ESBL production using the disk diffusion method. The beta-lactamase reference isolates were purchased from International Health Management Associates (IHMA). Bacterial strains were cultivated in Mueller–Hinton Broth (MHB, Difco) at 37 °C. Whenever required, growth media were supplemented with appropriate antibiotics to the medium or plates (kanamycin 30 µg/mL, L-arabinose 0.5 mg/mL, and IPTG […]). Escherichia coli BL21 (ThermoFisher Scientific, Belgium) was used for cloning and plasmid amplification. For the selection of antibiotic resistant colonies, E. coli carrying plasmids was grown in LB agar plates supplemented with the relevant antibiotic. Bacterial CFU counting was done on blood agar plates (BD Biosciences, Belgium) or MHA agar plates. Species identification and antibiograms for all clinical isolates were performed using MALDI-Tof and VITEK® 2 automated system (BioMérieux, France).
(§2) Khodaparast et al Supplementary data
(§3) study. […] Abbreviations: S,
(§4) susceptible; I, intermediate; R, resistant.

E. coli NDM5b = experiment: VITEK 2 AST antimicrobial susceptibility testing; details: for Interoretation: E. coli NDM5b; for Interpretation: VITEK 2 AST card
Experimental: as §1, §2, §3, §4

E. coli TEM-16 = experiment: VITEK 2 AST antimicrobial susceptibility testing; details: for Interoretation: E. coli TEM-16; for Interpretation: VITEK 2 AST card
Experimental: as §1, §2, §3, §4

E. coli TEM-148 = experiment: VITEK 2 AST antimicrobial susceptibility testing; details: for Interoretation: E. coli TEM-148; for Interpretation: VITEK 2 AST card
Experimental: as §1, §2, §3, §4

E. coli NDM5a = experiment: VITEK 2 AST antimicrobial susceptibility testing; details: for Interoretation: E. coli NDM5a; for Interpretation: VITEK 2 AST card
Experimental: as §1, §2, §3, §4

E. coli TEM-104 = experiment: VITEK 2 AST antimicrobial susceptibility testing; details: for Interoretation: E. coli TEM-104; for Interpretation: VITEK 2 AST card
Experimental: as §1, §2, §3, §4

E. coli TEM-206 = experiment: VITEK 2 AST antimicrobial susceptibility testing; details: for Interoretation: E. coli TEM-206; for Interpretation: VITEK 2 AST card
Experimental: as §1, §2, §3, §4

E. coli SHV1 (APHA) = experiment: VITEK 2 AST antimicrobial susceptibility testing; details: for Interoretation: E. coli SHV154; for Interpretation: VITEK 2 AST card
Experimental: as §1, §2, §3, §4

Compound | Interoretation (E. coli TEM-30) | Interpretation (E. coli TEM-30) | Interoretation (E. coli NDM5b) | Interpretation (E. coli NDM5b) | Interoretation (E. coli TEM-16) | Interpretation (E. coli TEM-16) | Interoretation (E. coli TEM-148) | Interpretation (E. coli TEM-148) | Interoretation (E. coli NDM5a) | Interpretation (E. coli NDM5a) | Interoretation (E. coli TEM-104) | Interpretation (E. coli TEM-104) | Interoretation (E. coli TEM-206) | Interoretation (E. coli SHV1 (APHA)) | Interpretation (E. coli SHV1 (APHA)) | Interpretation (E. coli TEM-206)
NCC[C@H](O)C(=O)N[C@@H]1C[C@H](N)[C@@H](O[C@H]2O[C@H](CN)[C@@H](O)[C@H](O)[C@H]2O)[C@H](O)[C@H]1O[C@H]1O[C@H](CO)[C@@H](O)[C@H](N)[C@H]1O [Amikacin] | S | S | S | S | S | S | S | S | S | S | S | S | S | S | S | –
C=CC1=C(C(=O)O)N2C(=O)[C@@H](NC(=O)/C(=N\OCC(=O)O)c3csc(N)n3)[C@H]2SC1 [Cefixime] | *I | *I | R | R | R | R | *I | *I | R | R | S | S | R | R | R | R
CO/N=C(\C(=O)N[C@@H]1C(=O)N2C(C(=O)O)=C(COC(C)=O)CS[C@H]12)c1csc(N)n1 [Cefotaxime] | R | R | R | R | R | R | R | R | R | R | S | S | R | R | R | R
CO[C@@]1(NC(=O)Cc2cccs2)C(=O)N2C(C(=O)O)=C(COC(N)=O)CS[C@@H]21 [Cefoxitin] | S | S | R | R | S | S | S | S | R | R | S | S | S | R | R | S
CC(C)(O/N=C(\C(=O)N[C@@H]1C(=O)N2C(C(=O)[O-])=C(C[n+]3ccccc3)CS[C@H]12)c1csc(N)n1)C(=O)O [Ceftazidime] | *I | *I | R | R | R | R | *I | *I | R | R | S | S | R | R | R | R
CO/N=C(\C(=O)N[C@@H]1C(=O)N2C(C(=O)OC(C)OC(C)=O)=C(COC(N)=O)CS[C@H]12)c1ccco1 (stereo partly shown) [Cefuroxime Axetil] | R | R | R | R | R | R | R | R | R | R | S | S | R | R | R | R
CO/N=C(\C(=O)N[C@@H]1C(=O)N2C(C(=O)O)=C(COC(N)=O)CS[C@H]12)c1ccco1 [Cefuroxime] | R | R | R | R | R | R | R | R | R | R | S | S | R | R | R | R
CNC(C)C1CCC(N)C(OC2C(N)CC(N)C(OC3OCC(C)(O)C(NC)C3O)C2O)O1 (stereo not shown) [Gentamicin] | R | R | S | S | S | S | S | S | R | R | S | S | S | R | R | S
C[C@H]1COc2c(N3CCN(C)CC3)c(F)cc3c(=O)c(C(=O)O)cn1c23 [Levofloxacin] | R | R | R | R | S | S | S | S | R | R | S | S | R | S | S | R
C[C@@H](O)[C@H]1C(=O)N2C(C(=O)O)=C(S[C@@H]3CN[C@H](C(=O)N(C)C)C3)[C@H](C)[C@H]12 [Meropenem] | S | S | I | I | S | S | S | S | R | R | S | S | S | S | S | S
O=C1CN(/N=C/c2ccc([N+](=O)[O-])o2)C(=O)N1 [Nitrofurantoin] | S | S | R | R | S | S | S | S | R | R | S | S | S | S | S | S
CO[C@@]1(NC(=O)C(C(=O)O)c2ccsc2)C(=O)N2[C@@H](C(=O)O)C(C)(C)S[C@@H]21 (stereo partly shown) [Temocillin] | S | S | – | R | – | R | S | S | – | R | S | S | S | R | R | S
CN(C)c1cc(NC(=O)CNC(C)(C)C)c(O)c2c1C[C@H]1C[C@H]3[C@H](N(C)C)C(O)=C(C(N)=O)C(=O)[C@@]3(O)C(O)=C1C2=O [Tigecycline] | I | I | S | S | S | S | S | S | S | S | S | S | S | S | S | S
NC[C@H]1O[C@H](O[C@H]2[C@H](O)[C@@H](O[C@H]3O[C@H](CO)[C@@H](O)[C@H](N)[C@H]3O)[C@H](N)C[C@@H]2N)[C@H](N)C[C@@H]1O [Tobramycin] | *R | *R | S | S | S | S | S | S | R | R | S | S | S | *R | *R | –
Amoxicillin + clavulanic acid | *R | *R | R | R | *R | *R | *R | *R | R | R | R | R | *R | R | R | *R
